# Article PMC12102759 (Protein Science : A Publication of the Protein Society, 2025)
# Read-outs that look alike come from different tables or passages of the source.
# System: PABPC1 PABC
# Assay type: binding, human
# Details: DMS-BM library, bait PABPC1 PABC, row aa = residue at this position; for DMS-derived PSSM value, position E10 / DMS-derived PSSM value, position E8: E = wild type
# [1] = prey ATXN2, peptide TLNPNAKEFNPRSFSQ, S = wild type
# [2] = prey ATXN2, peptide KSTLNPNAKEFNPRSF
# [3] = prey ATXN2, peptide KSTLNPNAKEFNPRSF, P = wild type
# [4] = prey ATXN2, peptide TLNPNAKEFNPRSFSQ, F = wild type
# [5] = prey ATXN2, TLNPNAKEFNPRSF(averaged) over the two overlapping peptides, N = wild type
# [6] = prey ATXN2, peptide KSTLNPNAKEFNPRSF, S = wild type
# [7] = prey ATXN2, peptide KSTLNPNAKEFNPRSF, N = wild type
# [8] = prey ATXN2, peptide TLNPNAKEFNPRSFSQ, N = wild type
# [9] = prey ATXN2, peptide TLNPNAKEFNPRSFSQ
substance,measurement,setting,value
TLNPNAKEFNPRSFSQ S13K (TLNPNAKEFNPRKFSQ),"DMS-derived PSSM value, position S13",[1],0.007933
KSTLNPNAKEFNPRSF E10F (KSTLNPNAKFFNPRSF),"DMS-derived PSSM value, position E10",[2],0
KSTLNPNAKEFNPRSF P6E (KSTLNENAKEFNPRSF),"DMS-derived PSSM value, position P6",[3],0
TLNPNAKEFNPRSFSQ S13P (TLNPNAKEFNPRPFSQ),"DMS-derived PSSM value, position S13",[1],0.0852
KSTLNPNAKEFNPRSF P6K (KSTLNKNAKEFNPRSF),"DMS-derived PSSM value, position P6",[3],0
TLNPNAKEFNPRSFSQ S13E (TLNPNAKEFNPREFSQ),"DMS-derived PSSM value, position S13",[1],0.006231
TLNPNAKEFNPRSFSQ F14I (TLNPNAKEFNPRSISQ),"DMS-derived PSSM value, position F14",[4],0.0189
TLNPNAKEFNPRSF(averaged) N5K (TLNPKAKEFNPRSF),"DMS-derived PSSM value (averaged), position N5",[5],0.009917
TLNPNAKEFNPRSFSQ S15M (TLNPNAKEFNPRSFMQ),"DMS-derived PSSM value, position S15",[1],0.1078
TLNPNAKEFNPRSF(averaged) N5F (TLNPFAKEFNPRSF),"DMS-derived PSSM value (averaged), position N5",[5],0.03844
TLNPNAKEFNPRSFSQ P11I (TLNPNAKEFNIRSFSQ),"DMS-derived PSSM value, position P11","prey ATXN2, peptide TLNPNAKEFNPRSFSQ, P = wild type",0.0006115
KSTLNPNAKEFNPRSF F16K (KSTLNPNAKEFNPRSK),"DMS-derived PSSM value, position F16","prey ATXN2, peptide KSTLNPNAKEFNPRSF, F = wild type",0.01965
TLNPNAKEFNPRSF(averaged) N10Y (TLNPNAKEFYPRSF),"DMS-derived PSSM value (averaged), position N10",[5],0.1006
KSTLNPNAKEFNPRSF S15Q (KSTLNPNAKEFNPRQF),"DMS-derived PSSM value, position S15",[6],0
KSTLNPNAKEFNPRSF N7I (KSTLNPIAKEFNPRSF),"DMS-derived PSSM value, position N7",[7],0.5578
TLNPNAKEFNPRSFSQ R12H (TLNPNAKEFNPHSFSQ),"DMS-derived PSSM value, position R12","prey ATXN2, peptide TLNPNAKEFNPRSFSQ, R = wild type",0.186
TLNPNAKEFNPRSFSQ T1R (RLNPNAKEFNPRSFSQ),"DMS-derived PSSM value, position T1","prey ATXN2, peptide TLNPNAKEFNPRSFSQ, T = wild type",0.08249
KSTLNPNAKEFNPRSF N5T (KSTLTPNAKEFNPRSF),"DMS-derived PSSM value, position N5",[7],0
KSTLNPNAKEFNPRSF N7S (KSTLNPSAKEFNPRSF),"DMS-derived PSSM value, position N7",[7],0.04398
TLNPNAKEFNPRSFSQ F14N (TLNPNAKEFNPRSNSQ),"DMS-derived PSSM value, position F14",[4],0.0664
TLNPNAKEFNPRSFSQ A6R (TLNPNRKEFNPRSFSQ),"DMS-derived PSSM value, position A6","prey ATXN2, peptide TLNPNAKEFNPRSFSQ, A = wild type",0
TLNPNAKEFNPRSFSQ N10Y (TLNPNAKEFYPRSFSQ),"DMS-derived PSSM value, position N10",[8],0.09858
TLNPNAKEFNPRSFSQ E8N (TLNPNAKNFNPRSFSQ),"DMS-derived PSSM value, position E8",[9],0.1259
KSTLNPNAKEFNPRSF A8V (KSTLNPNVKEFNPRSF),"DMS-derived PSSM value, position A8","prey ATXN2, peptide KSTLNPNAKEFNPRSF, A = wild type",0.4196
TLNPNAKEFNPRSFSQ E8D (TLNPNAKDFNPRSFSQ),"DMS-derived PSSM value, position E8",[9],0
KSTLNPNAKEFNPRSF S15W (KSTLNPNAKEFNPRWF),"DMS-derived PSSM value, position S15",[6],0.009844
TLNPNAKEFNPRSF(averaged) N3E (TLEPNAKEFNPRSF),"DMS-derived PSSM value (averaged), position N3",[5],0
KSTLNPNAKEFNPRSF R14E (KSTLNPNAKEFNPESF),"DMS-derived PSSM value, position R14","prey ATXN2, peptide KSTLNPNAKEFNPRSF, R = wild type",0.01157
KSTLNPNAKEFNPRSF N12E (KSTLNPNAKEFEPRSF),"DMS-derived PSSM value, position N12",[7],0.06073
TLNPNAKEFNPRSFSQ N5D (TLNPDAKEFNPRSFSQ),"DMS-derived PSSM value, position N5",[8],0.00392
TLNPNAKEFNPRSF(averaged) R12M (TLNPNAKEFNPMSF),"DMS-derived PSSM value (averaged), position R12","prey ATXN2, TLNPNAKEFNPRSF(averaged) over the two overlapping peptides, R = wild type",0.02329
TLNPNAKEFNPRSF(averaged) L2I (TINPNAKEFNPRSF),"DMS-derived PSSM value (averaged), position L2","prey ATXN2, TLNPNAKEFNPRSF(averaged) over the two overlapping peptides, L = wild type",0.0008035
TLNPNAKEFNPRSF(averaged) S13D (TLNPNAKEFNPRDF),"DMS-derived PSSM value (averaged), position S13","prey ATXN2, TLNPNAKEFNPRSF(averaged) over the two overlapping peptides, S = wild type",0.02964
KSTLNPNAKEFNPRSF E10I (KSTLNPNAKIFNPRSF),"DMS-derived PSSM value, position E10",[2],0
TLNPNAKEFNPRSFSQ F9V (TLNPNAKEVNPRSFSQ),"DMS-derived PSSM value, position F9",[4],0.0008789
